Our source for the TGI values is PubChem BioAssay (NCI).

SMILES strings stand for the structures.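 Cultured in 96-well plates, cells were exposed to test compound for 48 hours across five concentrations. TGI: total growth inhibition.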 A value given as a limit tells only on which side of the number the result lay.

Test systems include SK-MEL-28 melanoma; SN12C renal; RXF 393 renal; PC-3 prostate; NCI-H522 lung; UACC-257 melanoma; MDA-N; EKVX NSCLC; MDA-MB-435; HS 578T breast.
Holding throughout (assay): NCI anticancer screen, dose series, 48 h

In the case of `c1ccc2c(c1)nn1c3ccc4nonc4c3[n-][n+]21`, the TGI in the assay on SK-MEL-28 melanoma, in the assay on SN12C renal, with RXF 393 renal, in the assay on PC-3 prostate, in the assay with NCI-H522 lung and with UACC-257 melanoma was greater than 100 µM in each case. In addition, the TGI with MDA-N, with EKVX NSCLC and in the assay with MDA-MB-435 was greater than 100 µM each time.

In the case of `O=C1c2c(O)cc(O)cc2C(C2OC(CO)C(O)C(O)C2O)c2cc(CO)cc(O)c21` (centres undefined), the TGI with SK-MEL-28 melanoma, with SN12C renal, in the assay with PC-3 prostate, in the assay with UACC-257 melanoma, in the assay on MDA-N and with EKVX NSCLC was greater than 100 µM in each case. The same compound displayed a TGI in the assay with MDA-MB-435 greater than 100 µM.

On to `Cc1c(O)c(OC2OC(CO)C(O)C(O)C2O)cc2c1CC[C@@H]1C2(C)C(=O)C[C@]2(C)[C@@H]([C@@](C)(O)C3CCC(C)(C)O3)[C@H](O)C[C@@]12C` (some centres undefined), for which the TGI in the assay on SK-MEL-28 melanoma, with SN12C renal, with RXF 393 renal, with PC-3 prostate, in the assay with NCI-H522 lung and in the assay with UACC-257 melanoma was greater than 100 µM each time. Further, the TGI with EKVX NSCLC and in the assay on MDA-MB-435 was greater than 100 µM throughout.

Turning to `NC(=O)CN1CC(C2=C(O)CN(CC(N)=O)C2=O)=CC1=O`, the TGI in the assay on SK-MEL-28 melanoma, in the assay with SN12C renal, in the assay on PC-3 prostate, in the assay with NCI-H522 lung, with UACC-257 melanoma and in the assay with HS 578T breast was greater than 100 µM each time. Also, the TGI with EKVX NSCLC and in the assay on MDA-MB-435 was greater than 100 µM each time.

As to `Cc1ccc(S(=O)(=O)NC(=O)Nc2cccc(S(N)(=O)=O)c2)cc1`, the TGI in the assay on SK-MEL-28 melanoma, with RXF 393 renal, with PC-3 prostate, in the assay with NCI-H522 lung, with HS 578T breast and in the assay on EKVX NSCLC was greater than 100 µM throughout. This compound also had a TGI with MDA-MB-435 greater than 100 µM.

Take `O=C(Nn1c(-c2cccs2)nc2ccc(I)cc2c1=O)c1ccccc1`: the TGI is 53 µM with SK-MEL-28 melanoma; greater than 100 µM in the assay with SN12C renal; greater than 100 µM in the assay with RXF 393 renal; greater than 100 µM in the assay with PC-3 prostate; 59.5 µM in the assay on NCI-H522 lung; 31.1 µM with UACC-257 melanoma. Also, the TGI with MDA-N was greater than 100 µM; in the assay with EKVX NSCLC, 70.5 µM; in the assay with MDA-MB-435, 45.7 µM.

`COc1ccc2c(c1)CC1COc3cc(OC)ccc3C1O2` (centres undefined): the TGI in the assay with SN12C renal, with PC-3 prostate, in the assay with NCI-H522 lung, in the assay on UACC-257 melanoma, in the assay on MDA-N and with EKVX NSCLC was greater than 100 µM each time. The compound further came in with a TGI in the assay on MDA-MB-435 greater than 100 µM.

In the case of `O=C(c1cccc2ccccc12)C1S(=O)(=O)OCCOS1(=O)=O`, the TGI in the assay on SK-MEL-28 melanoma, in the assay with SN12C renal, in the assay with PC-3 prostate, in the assay with MDA-N and in the assay with EKVX NSCLC was greater than 100 µM each time.

With `CCC(=O)NI1OC(=O)c2ccccc21`, the TGI in the assay with SK-MEL-28 melanoma was greater than 100 µM; with SN12C renal, greater than 100 µM; in the assay on RXF 393 renal it was greater than 100 µM; in the assay on PC-3 prostate, greater than 100 µM; with NCI-H522 lung, 48.8 µM; with UACC-257 melanoma, greater than 100 µM. Moreover, the TGI with EKVX NSCLC and in the assay with MDA-MB-435 was greater than 100 µM throughout.

For `C=C1[C@H]2O[C@H]2[C@@H](OC(C)=O)[C@@]2(C)[C@@H](OC(C)=O)C[C@@H](OC(=O)CCC)[C@@](C)(O)[C@@H]2[C@@H](OC(C)=O)[C@]2(O)[C@@H](C)C(=O)O[C@H]2[C@H]1Cl`, the TGI with SK-MEL-28 melanoma, in the assay on SN12C renal, with RXF 393 renal, in the assay with PC-3 prostate, with NCI-H522 lung and with UACC-257 melanoma was greater than 100 µM throughout. Further, the TGI in the assay with MDA-N, in the assay on EKVX NSCLC and in the assay with MDA-MB-435 was greater than 100 µM each time.

On to `C[C@@H]1[C@H](O)CC2=C(CC[C@@H](O)C2(C)C)[C@@]1(CO)CCc1ccoc1`, for which the TGI with SK-MEL-28 melanoma, in the assay on SN12C renal, with RXF 393 renal, in the assay on PC-3 prostate, in the assay with UACC-257 melanoma and with HS 578T breast was greater than 50 µM each time. The TGI in the assay with MDA-N and in the assay with EKVX NSCLC was greater than 50 µM throughout.

With `COc1cc2c(cc1OC)C1c3ccccc3CCN1CCC2` (centres undefined), the TGI in the assay with SK-MEL-28 melanoma, with SN12C renal, with PC-3 prostate, with UACC-257 melanoma, with MDA-N and in the assay with EKVX NSCLC was greater than 100 µM in each case. This compound also gave a TGI in the assay with MDA-MB-435 greater than 100 µM.

In the case of `COCCOC(=O)NCn1cc(-c2ccccc2)nn1`, the TGI in the assay with SK-MEL-28 melanoma, in the assay on SN12C renal, in the assay with PC-3 prostate, in the assay with NCI-H522 lung, in the assay on UACC-257 melanoma and in the assay with EKVX NSCLC was greater than 100 µM throughout. In the assay on MDA-MB-435, this compound returned a TGI greater than 100 µM.
